Assay results published in ChEMBL document CHEMBL3045787, “Synthesis of novel 1,4-naphthoquinone derivatives: antibacterial and antifungal agents” (2013).
Converted amounts (≈) assume the structure as drawn. The source made the active and inactive calls. The calls are words filed in the database; no cut-off is given here.

Key:
[1] = test system: Aspergillus niger; test: Antifungal activity against Aspergillus niger assessed as growth inhibition at 0.5% after 48 to 72 hr by agar disk diffusion method; format: functional
[2] = test system: Escherichia coli; test: Antibacterial activity against Escherichia coli B 906 assessed as growth inhibition at 0.1% after 24 hr by agar disk diffusion method; format: functional
[3] = test system: Staphylococcus aureus; test: Antibacterial activity against Staphylococcus aureus 209-P assessed as growth inhibition at 0.1% after 24 hr by agar disk diffusion method; format: functional
[4] = test system: Yamadazyma tenuis; test: Antifungal activity against Candida tenuis assessed as growth inhibition after 24 to 72 hr by serial dilution method; format: functional
[5] = test system: Yamadazyma tenuis; test: Antifungal activity against Candida tenuis assessed as growth inhibition at 0.5% after 48 to 72 hr by agar disk diffusion method; format: functional
[6] = test system: Mycobacterium; test: Antibacterial activity against Mycobacterium luteum B-917 assessed as growth inhibition at 0.5% after 24 hr by agar disk diffusion method; format: functional
[7] = test system: Yamadazyma tenuis; test: Antifungal activity against Candida tenuis assessed as growth inhibition at 0.1% after 48 to 72 hr by agar disk diffusion method; format: functional
[8] = test system: Escherichia coli; test: Antibacterial activity against Escherichia coli B 906 assessed as growth inhibition at 0.5% after 24 hr by agar disk diffusion method; format: functional
[9] = test system: Mycobacterium; test: Antibacterial activity against Mycobacterium luteum B-917 assessed as growth inhibition after 24 to 72 hr by serial dilution method; format: functional
[10] = test system: Staphylococcus aureus; test: Antibacterial activity against Staphylococcus aureus 209-P assessed as growth inhibition after 24 to 72 hr by serial dilution method; format: functional
[11] = test system: Escherichia coli; test: Antibacterial activity against Escherichia coli B 906 assessed as growth inhibition after 24 to 72 hr by serial dilution method; format: functional, organism-based
[12] = test system: Staphylococcus aureus; test: Antibacterial activity against Staphylococcus aureus 209-P assessed as growth inhibition at 0.5% after 24 hr by agar disk diffusion method; format: functional
[13] = test system: Aspergillus niger; test: Antifungal activity against Aspergillus niger assessed as growth inhibition at 0.1% after 48 to 72 hr by agar disk diffusion method; format: functional
[14] = test system: Aspergillus niger; test: Antifungal activity against Aspergillus niger assessed as growth inhibition after 24 to 72 hr by serial dilution method; format: functional
[15] = test system: Mycobacterium; test: Antibacterial activity against Mycobacterium luteum B-917 assessed as growth inhibition at 0.1% after 24 hr by agar disk diffusion method; format: functional

| Compound | diameter of the inhibition zone (DIZ) [1] [mm] | diameter of the inhibition zone (DIZ) [2] [mm] | diameter of the inhibition zone (DIZ) [3] [mm] | MIC [4] | diameter of the inhibition zone (DIZ) [5] [mm] | diameter of the inhibition zone (DIZ) [6] [mm] | diameter of the inhibition zone (DIZ) [7] [mm] | diameter of the inhibition zone (DIZ) [8] [mm] | MIC [9] | MIC [10] | MIC [11] | diameter of the inhibition zone (DIZ) [12] [mm] | diameter of the inhibition zone (DIZ) [13] [mm] | MIC [14] | diameter of the inhibition zone (DIZ) [15] [mm] | inhibition zone (IZ) [7] [mm] | inhibition zone (IZ) [13] [mm] |
| --- | --- | --- | --- | --- | --- | --- | --- | --- | --- | --- | --- | --- | --- | --- | --- | --- | --- |
| CCOC1=C(Sc2ccc(O)cc2)C(=O)c2ccccc2C1=O | 0 | 0 | 0 | 31.2 µg/mL (≈ 95.6 µM) | 0 | 0 | 0 | 0 | 125 µg/mL (≈ 383 µM) | inactive | inactive | 0 | 0 | 15.6 µg/mL (≈ 47.8 µM) | 0 |  |  |
| O=C1C2=C(SCCCCSC3=C(SCCCCS2)C(=O)c2ccccc2C3=O)C(=O)c2ccccc21 | 19.4 | 0 | 10.4 | 3.9 µg/mL (≈ 7.06 µM) | 11.4 | 25.4 | 9.7 | 0 | 1.9 µg/mL (≈ 3.44 µM) | 500 µg/mL (≈ 905 µM) | inactive | 12 | 16.4 | 15.6 µg/mL (≈ 28.2 µM) | 21.4 |  |  |
| O=C1C(SCc2ccc(Cl)cc2)=C(N2CCCC2)C(=O)c2ccccc21 | 0 | 0 | 0 | 7.8 µg/mL (≈ 20.3 µM) | 0 | 14.4 | 0 | 0 | 125 µg/mL (≈ 326 µM) | 250 µg/mL (≈ 651 µM) | inactive | 0 | 0 | 15.6 µg/mL (≈ 40.6 µM) | 8.7 |  |  |
| O=C1C(SCc2ccc(Cl)cc2)=C(N2CCSCC2)C(=O)c2ccccc21 | 0 | 0 | 0 | 7.8 µg/mL (≈ 18.8 µM) | 0 | 13.4 | 0 | 0 | 125 µg/mL (≈ 301 µM) | inactive | inactive | 0 | 0 | 31.2 µg/mL (≈ 75 µM) | 7 |  |  |
| O=C1C(Sc2ccc(O)cc2)=C(Sc2ccc(O)cc2)C(=O)c2ccccc21 | 8 | 0 | 6 | 7.8 µg/mL (≈ 19.2 µM) | 0 | 12.7 | 0 | 0 | 250 µg/mL (≈ 615 µM) | 125 µg/mL (≈ 308 µM) | inactive | 9.7 | 0 | 7.8 µg/mL (≈ 19.2 µM) | 7 |  |  |
| NYSTATIN |  |  |  |  |  |  |  |  |  |  |  |  |  |  |  | 19 | 20 |
| O=C1C(SCCOc2ccccc2)=C(SCCOc2ccccc2)C(=O)c2ccccc21 | 0 | 0 | 0 | 125 µg/mL (≈ 270 µM) | 0 | 8 | 0 | 0 | inactive | inactive | inactive | 0 | 0 | 7.8 µg/mL (≈ 16.9 µM) | 0 |  |  |
| COC(=O)CCSC1=C(SCCC(=O)OC)C(=O)c2ccccc2C1=O | 14.7 | 0 | 10 | 15.6 µg/mL (≈ 39.5 µM) | 15 | 19.7 | 10 | 0 | 7.8 µg/mL (≈ 19.8 µM) | 250 µg/mL (≈ 634 µM) | inactive | 13.4 | 12.4 | 15.6 µg/mL (≈ 39.5 µM) | 15.4 |  |  |
| O=C1C(SCc2ccc(Cl)cc2)=C(N2CCOCC2)C(=O)c2ccccc21 | 0 | 0 | 0 | inactive | 0 | 8 | 0 | 0 | inactive | inactive | inactive | 0 | 0 | inactive | 7 |  |  |
| O=C1C(Cl)=C(N2CCC(C(O)(c3ccccc3)c3ccccc3)CC2)C(=O)c2ccccc21 | 0 | 0 | 0 | inactive | 0 | 9 | 0 | 0 | inactive | inactive | inactive | 0 | 0 | inactive | 7.5 |  |  |
| CCOC1=C(Sc2nccn2C)C(=O)c2ccccc2C1=O | 12 | 0 | 0 | 250 µg/mL (≈ 795 µM) | 0 | 0 | 0 | 0 | inactive | inactive | inactive | 0 | 0 | 15.6 µg/mL (≈ 49.6 µM) | 0 |  |  |
| O=C1C(SCc2ccc(Cl)cc2)=C(N2CCN(c3ccccc3F)CC2)C(=O)c2ccccc21 | 0 | 0 | 0 | inactive | 0 | 0 | 0 | 0 | inactive | inactive | inactive | 0 | 0 | inactive | 0 |  |  |
| COC(=O)CCSC1=C(Cl)C(=O)c2ccccc2C1=O | 10.4 | 0 | 6 | 1.9 µg/mL (≈ 6.11 µM) | 13 | 18 | 12.4 | 0 | 7.8 µg/mL (≈ 25.1 µM) | inactive | inactive | 8 | 11 | 7.8 µg/mL (≈ 25.1 µM) | 9 |  |  |
| O=C1C(Cl)=C(Sc2c(Cl)c(Cl)c(Cl)c(Cl)c2Cl)C(=O)c2ccccc21 | 0 | 0 | 0 | 125 µg/mL (≈ 264 µM) | 0 | 0 | 0 | 0 | inactive | inactive | inactive | 0 | 0 | 250 µg/mL (≈ 529 µM) | 0 |  |  |
| CN[C@H](CC(C)C)C(=O)N[C@H]1C(=O)N[C@@H](CC(N)=O)C(=O)N[C@H]2C(=O)N[C@H]3C(=O)N[C@H](C(=O)N[C@H](C(=O)O)c4cc(O)cc(O)c4-c4cc3ccc4O)[C@H](O)c3ccc(c(Cl)c3)Oc3cc2cc(c3O[C@@H]2O[C@H](CO)[C@@H](O)[C@H](O)[C@H]2O[C@H]2C[C@](C)(N)[C@H](O)[C@H](C)O2)Oc2ccc(cc2Cl)[C@H]1O [VANCOMYCIN] |  | 14 | 15 |  |  |  |  |  |  |  |  |  |  |  | 18 |  |  |
